A short description of the series: gradient 5% acetonitrile 3 min, to 50% in 2 min, to 85% in 15 min, held 3 min, 100 µL/min. Conditions: column: Zorbax Extend-C18 2.1 x 50 mm; eluents: water / acetonitrile, 0.1% formic acid. In outline: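 Each retention time is based on an adduct peak selected computationally and verified by manual inspection. Measurements used HPLC–quadrupole time-of-flight mass spectrometry in positive and negative ionization mode on mixtures of ~100 pure standards. Chromatography ran on a Zorbax Extend-C18 column (2.1 × 50 mm, 1.8 μm) at 100 μL/min with water and acetonitrile, each containing 0.1% formic acid, and dead and dwell volumes of 40 μL and 900 μL.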
Regarding `Cc1nc(-c2csc(S(=O)(=O)N3CCCC(C(=O)N4CCc5ccccc54)C3)c2)no1` (centres undefined), the RP-LC retention time came out at 1020 s.
Consider `O=C(Cc1ccsc1)Nc1ccc2ncnc(N3CCCCC3)c2c1`, for which the RP-LC retention time stood at 666 s.
The result for `CCc1ccc(NC(=O)C2CCCN(c3ncnc4c3nc3n4CCCCC3)C2)cc1` (centres undefined) reads 824 s.
Compound `O=C(Nc1ccc(F)cc1)Oc1ccc[nH]c1=O` showed an RP-LC retention time of 684 s.
The result for `Cc1cccc(-c2nc3c4ccccc4nc(N4CCN(c5ccccn5)CC4)n3n2)c1` reads 921 s; that for `CC1(C(=O)NCc2ccccc2)Cc2ccccc2C(=O)N1C1CC1` (centres undefined), 751 s; that for `COc1ccccc1-c1nc(Cn2nnc(-c3nc(-c4cccc(Cl)c4)no3)c2C)c(C)o1`, 1240 s.
The figure for `COc1ccc(Cl)cc1NS(=O)(=O)c1cc(-c2[nH]ncc2C(=O)N(C)C)oc1C` is 716 s; for `CCOc1ccc(-c2noc(CN3C(=O)COc4cc(Cl)ccc43)n2)cc1OC` it is 1080 s; for `O=C(c1ccccn1)N1CC(n2cc(COc3ccncc3)nn2)C1` it is 566 s.
The result for `COc1ccc2c(c1)c1ncn(Cc3nc(C4CC4)no3)c(=O)c1n2Cc1c(F)cccc1Cl` reads 1070 s; that for `CC(C)c1noc(-c2cc(=O)n(CC(=O)Nc3ccccc3)c3ccccc23)n1`, 972 s.
As to `CS(=O)(=O)N1CCCC(C(=O)N(Cc2ccccc2)Cc2ccccc2)C1` (centres undefined), the RP-LC retention time stood at 886 s.
The result for `O=C(c1ccc(Cl)c(Cl)c1)N1CCC2(CC1)OCCS2` reads 890 s; that for `O=C(NCCc1ccccc1)N1CCN(c2nc3cccnc3n(Cc3ccccc3)c2=O)CC1`, 1080 s; that for `CCCC(=O)Nc1ccc(-c2nc(-c3ccccc3)co2)cc1`, 1010 s.
The figure for `Cc1ccc(-c2cn3cc(C(=O)NC(C)(C)C)ccc3n2)cc1` is 692 s; for `O=C(COc1ccc(Cl)cc1)N1CCC2(C1)C(=O)Nc1ccccc12` (centres undefined) it is 776 s.
The result for `Cc1ccc(-c2noc(C3CCCN3S(=O)(=O)c3ccc(Br)cc3)n2)cc1` (centres undefined) reads 1230 s.
`CCn1c(CCc2ccccc2NS(=O)(=O)c2ccc(F)cc2F)nc2ccccc21` came in with an RP-LC retention time of 755 s.
In turn, `CNC(=O)C1Cc2ccccc2N1C(=O)c1ccccc1SC(F)F` (centres undefined) yielded an RP-LC retention time of 715 s.
The figure for `O=C(Nc1ccc(Br)cc1F)N1CCC(n2cnc3cccnc32)CC1` is 690 s; for `O=C([C@@H]1C[C@H](Oc2cccnc2)CN1C(=O)C1CC=CC1)N1CCCC1` it is 571 s.
The figure for `COC(=O)c1c(C)[nH]c(C(=O)N2CCCC(C(=O)N3CCN(c4cccc(Cl)c4)CC3)C2)c1C` (centres undefined) is 952 s; for `O=C(CCc1nnc2c3cc(-c4ccccc4)nn3ccn12)N1CCN(C2CCCCC2)CC1` it is 628 s; for `CCOC(=O)c1oc2ccc(S(=O)(=O)N3CCCC(c4nn[nH]n4)C3)cc2c1C` (centres undefined) it is 822 s.
The figure for `CCCSCCCNC(=O)Cn1nc(-n2cccc2)c2c(C)cc(C)nc21` is 1050 s; for `Cc1cn(C2CC(O)C(CO)O2)c(=O)n(Cc2ccccc2)c1=O` (centres undefined) it is 697 s; for `CC(C)Cn1cc(CCNC(=O)Nc2ccc(Br)cc2F)c2cccnc21` it is 975 s.
`O=C(Cc1ccccc1F)N1CCN(c2cc(-c3cccs3)[nH]n2)CC1` yielded an RP-LC retention time of 794 s.
`COc1cccc(NC(=O)C2CCN(Cc3cnn(-c4ccccc4)c3-n3cccc3)CC2)c1` showed an RP-LC retention time of 723 s.
The figure for `COc1ccc(-c2nc(-c3ccc4c(c3)oc(=O)n4C)no2)cc1` is 1020 s.
The result for `Cn1cc(-c2ccncc2)cc1C(=O)NCc1ccc(F)cc1` reads 640 s.
`Cc1nc(-c2csc(S(=O)(=O)N3CCN(c4ccccc4Cl)CC3)c2)sc1C` yielded an RP-LC retention time of 1320 s.
In turn, `Cn1ccc2c(cc(C(=O)N3CCN(c4ccccc4F)CC3)n2C)c1=O` yielded an RP-LC retention time of 723 s.
In the case of `COc1cccc(S(=O)(=O)N2CCC3(CC2)N(C)C(=O)CS3=O)c1` (centres undefined), the RP-LC retention time turned out to be 653 s.
The figure for `COc1cccc(-c2nc(-c3cccc(-c4ccnn4C)c3)no2)c1OC` is 1020 s; for `CC1=C(c2ccc(C)c(C)c2)S(=O)(=O)N=C1N1CCCN(C(=O)NC(C)(C)C)CC1` it is 888 s; for `O=C(Cc1cccc(Cl)c1)Nc1cc(-c2ccccn2)no1` it is 843 s.
The result for `CNC(=O)Cn1nc(C2CCN(C(=O)c3nccc4ccccc34)CC2)c2c1CCOC2` reads 609 s; that for `CC(C)CCN1CCC(N2CCN(C(=O)C3CCCC3)CC2)C1=O` (centres undefined), 585 s.
`O=C(NCc1ccccc1)N1[C@H]2CC[C@@H]1c1cnc(-c3ccccc3)nc1C2`: the RP-LC retention time was determined as 865 s.
The figure for `COc1cccc(-c2noc(C3CCCN3C(=O)Nc3cc(Cl)ccc3OC)n2)c1` (centres undefined) is 1130 s.
The result for `CCc1ccc(Nc2nc(C(=O)NCCC3=CCCCC3)nc3ccccc23)cc1` reads 1080 s; that for `CC(=O)N1c2ccc(S(=O)(=O)N3CCC(C(=O)NC(C)c4ccccc4)CC3)cc2CC1C` (centres undefined), 733 s.
The figure for `CS(=O)(=O)c1ccc2nc(NC(=O)CN3C(=O)CCC3=O)sc2c1` is 582 s; for `Cc1sc(NC(=O)c2ccc(Br)cc2)nc1-c1ccc2c(c1)NC(=O)C(C)O2` (centres undefined) it is 1040 s.
As to `O=C(Nc1ccc2c(c1)CCCN2C(=O)C1CC1)c1ccccc1[N+](=O)[O-]`, the RP-LC retention time was determined as 716 s.
The result for `COc1ccc(-c2cc(N3CCN(C(=O)NCCC(C)C)CC3)ncn2)cc1OC` reads 658 s; that for `O=c1c2ccccc2n(Cc2nc(-c3ccc(Cl)cc3)no2)c(=O)n1CC1CCCO1` (centres undefined), 1080 s; that for `Cc1ccccc1NC(=O)N1CCC(CCN)CC1`, 580 s.
The result for `Cc1noc(C)c1S(=O)(=O)N1CCC(Cn2c(C)cnc2-c2ccccc2)C1` (centres undefined) reads 658 s.
The result for `CCOC(=O)C1CCCN(C(=O)CCC2NC(=O)c3ccccc3NC2=O)C1` (centres undefined) reads 621 s; that for `CCCNS(=O)(=O)c1ccc(-c2c(C)noc2C)cc1`, 835 s.
Turning to `CCOc1cc(=O)n2c(c1C(=O)NCc1ccc3c(c1)OCO3)CCCC2`, the RP-LC retention time was 707 s.
The figure for `CC(C)CCNC(=O)C1CCN(S(=O)(=O)c2ccc3c(c2)sc(=O)n3C)CC1` is 832 s; for `CCOC(=O)CNC(=O)N1CCN(c2nc3ccccc3nc2C(F)(F)F)CC1` it is 881 s; for `O=C(Nc1ccc2c(c1)OCCO2)c1cccc2c1CCN2C(=O)Nc1ccc(F)cc1` it is 909 s.
The result for `CC(=O)/C=C1\SC(CC(=O)O)C(=O)N1c1ccccc1` (centres undefined) reads 631 s.

The values are drawn from the METLIN SMRT retention time set (Domingo-Almenara et al. 2019).
